molecular target: Mitochondrial respiratory complex II (Mus musculus, UniProt Q8K2B3+Q9CQA3+Q9CXV1+Q9CZB0); test: Complex II inhibition assay; type: biochemical; conditions: 100 μM; mouse liver mitochondria; mean ±SD of n = 4
Sequence (Q8K2B3 43-664): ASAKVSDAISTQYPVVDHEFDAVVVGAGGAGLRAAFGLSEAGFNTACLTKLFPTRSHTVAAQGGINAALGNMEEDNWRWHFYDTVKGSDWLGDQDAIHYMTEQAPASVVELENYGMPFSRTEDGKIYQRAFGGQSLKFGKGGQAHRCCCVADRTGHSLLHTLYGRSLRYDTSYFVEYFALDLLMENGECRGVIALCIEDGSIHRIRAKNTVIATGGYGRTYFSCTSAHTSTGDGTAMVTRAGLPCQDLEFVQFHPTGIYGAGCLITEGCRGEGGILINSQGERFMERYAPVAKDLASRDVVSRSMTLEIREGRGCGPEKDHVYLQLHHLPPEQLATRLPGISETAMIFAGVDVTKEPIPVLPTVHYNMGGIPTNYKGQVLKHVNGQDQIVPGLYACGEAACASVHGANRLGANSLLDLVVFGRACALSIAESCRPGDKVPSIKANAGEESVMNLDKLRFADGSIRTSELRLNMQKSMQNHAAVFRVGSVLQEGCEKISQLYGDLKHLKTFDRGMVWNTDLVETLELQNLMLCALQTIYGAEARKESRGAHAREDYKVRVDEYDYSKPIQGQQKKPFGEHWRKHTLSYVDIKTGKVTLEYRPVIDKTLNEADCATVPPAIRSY
Sequence (Q9CQA3 31-282): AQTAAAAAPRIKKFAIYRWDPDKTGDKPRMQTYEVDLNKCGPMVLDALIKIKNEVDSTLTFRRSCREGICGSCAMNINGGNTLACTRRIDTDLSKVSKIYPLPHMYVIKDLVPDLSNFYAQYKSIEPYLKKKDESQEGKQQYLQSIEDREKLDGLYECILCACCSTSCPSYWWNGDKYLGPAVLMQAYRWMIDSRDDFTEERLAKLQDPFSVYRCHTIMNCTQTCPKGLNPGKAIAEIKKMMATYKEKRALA
Sequence (Q9CZB0 30-169): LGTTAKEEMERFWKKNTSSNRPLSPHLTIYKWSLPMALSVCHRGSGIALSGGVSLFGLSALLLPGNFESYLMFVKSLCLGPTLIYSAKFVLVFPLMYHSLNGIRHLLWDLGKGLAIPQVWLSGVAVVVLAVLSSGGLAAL
Sequence (Q9CXV1 57-159): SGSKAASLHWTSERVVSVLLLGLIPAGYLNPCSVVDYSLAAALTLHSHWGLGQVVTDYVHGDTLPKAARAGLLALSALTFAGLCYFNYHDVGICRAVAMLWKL

% Inhibition CII (100 μM)	Structure (SMILES)
inactive	O=S1(=O)N=C(NCc2ccc(Cl)cc2)Nc2ccccc21 [Compound 16d, 3-((4-Chlorobenzyl)amino)-4H-benzo[e][1,2,4]thiadiazine 1,1-dioxide]

same assay, conditions: read-out: % Inhibition CII (100 μM), 100 μM; mouse liver mitochondria; mean ±SD of n = 4

inhibition at 100 µM [%]	Structure (SMILES)
0	O=S1(=O)N=C(NCc2ccccc2)Nc2ccc(F)cc21 [Compound 21a, 3-(Benzylamino)-7-fluoro-4H-benzo[e][1,2,4]thiadiazine 1,1-dioxide]
29 ± 5.9	O=S1(=O)N=C(NCc2ccccc2C(F)(F)F)Nc2ccc(Br)cc21 [Compound 35c, 7-Bromo-3-((2-(trifluoromethyl)benzyl)amino)-4H-benzo[e][1,2,4]thiadiazine 1,1-dioxide]
0	CC(C)C(C)NC1=NS(=O)(=O)c2ccccc2N1 (stereo not drawn) [Compound 15d, 3-((3-Methylbutan-2-yl)amino)-4H-benzo[e][1,2,4]thiadiazine 1,1-dioxide]
11 ± 6.9	CCNC1=NS(=O)(=O)c2cc(Br)ccc2N1 [Compound 19c, 7-Bromo-3-(ethylamino)-4H-benzo[e][1,2,4]thiadiazine 1,1-dioxide]
23 ± 12.3	O=S1(=O)N=C(NCc2ccc(SC(F)(F)F)cc2)Nc2ccc(F)cc21 [Compound 38a, 7-Fluoro-3-((4-((trifluoromethyl)thio)benzyl)amino)-4H-benzo[e] [1,2,4]thiadiazine 1,1-dioxide]
4 ± 5.5	CSC1=NS(=O)(=O)c2ccccc2N1 [Compound 13d, 3-(Methylthio)-4H-benzo[e][1,2,4]thiadiazine 1,1-dioxide]
0	CSC1=NS(=O)(=O)c2cc(F)ccc2N1 [Compound 13a, 7-Fluoro-3-methylsulfanyl-4H-1,2,4-benzothiadiazine 1,1-dioxide]
7 ± 9.9	O=S1(=O)N=C(NCc2ccc(F)cc2)Nc2ccccc21 [Compound 17d, 3-((4-Fluorobenzyl)amino)-4H-benzo[e][1,2,4]thiadiazine 1,1-dioxide]
23 ± 9.9	Cc1ccc(CNC2=NS(=O)(=O)c3cc(F)ccc3N2)cc1 [Compound 27a, 7-Fluoro-3-((4-methylbenzyl)amino)-4H-benzo[e][1,2,4]thiadiazine 1,1-dioxide]
10 ± 2.7	CSC1=NS(=O)(=O)c2cc(Br)ccc2N1 [Compound 13c, 7-Bromo-3-methylsulfanyl-4H-1,2,4-benzothiadiazine 1,1-dioxide]
0	O=C1Nc2ccc(Br)cc2S(=O)(=O)N1 [Compound 11c, 7-Bromo-3-oxo-3,4-dihydro-2H-1,2,4-benzothiadiazine1,1-dioxide]
2 ± 5.8	O=S1(=O)NC(=S)Nc2ccccc21 [Compound 12d, 2H-benzo[e][1,2,4]thiadiazine-3(4H)-thione 1,1-dioxide]
0	O=S1(=O)N=C(NCc2ccc(Cl)cc2)Nc2ccccc21 [Compound 16d, 3-((4-Chlorobenzyl)amino)-4H-benzo[e][1,2,4]thiadiazine 1,1-dioxide]
9 ± 6	Nc1ccc(CNC2=NS(=O)(=O)c3cc(Br)ccc3N2)cc1 [Compound 31c, 3-((4-Aminobenzyl)amino)-7-bromo-4H-benzo[e][1,2,4]thiadiazine 1,1-dioxide]
20 ± 5.2	O=S1(=O)N=C(NCCc2cccc(C(F)(F)F)c2)Nc2ccc(F)cc21 [Compound 41a, 7-Fluoro-3-((3-(trifluoromethyl)phenethyl)amino)-4H-benzo[e][1,2,4] thiadiazine 1,1-dioxide]
0	CC(C)NC1=NS(=O)(=O)c2ccc(Cl)cc2N1 [Compound 14b, 6-Chloro-3-isopropylamino-4H-1,2,4-benzothiadiazine 1,1-dioxide]
0	CSC1=NS(=O)(=O)c2ccccc2N1C [Compound 42d, 4-Methyl-3-(methylthio)-4H-benzo[e][1,2,4]thiadiazine 1,1-dioxide]
0	COc1ccc(CNC2=NS(=O)(=O)c3ccccc3N2)cc1 [Compound 20d, 3-((4-Methoxybenzyl)amino)-4H-benzo[e][1,2,4]thiadiazine 1,1-dioxide]
6 ± 13.4	CSC1=NS(=O)(=O)c2cc(F)ccc2N1C [Compound 42a, 7-Fluoro-4-methyl-3-(methylthio)-4H-benzo[e][1,2,4]thiadiazine 1,1-dioxide]
0	CCNC1=NS(=O)(=O)c2cc(F)ccc2N1 [Compound 19a, 3-(Ethylamino)-7-fluoro-4H-benzo[e][1,2,4]thiadiazine 1,1-dioxide]
2 ± 6.9	O=S1(=O)N=C(NCc2ccc(OC(F)(F)F)cc2)Nc2ccc(F)cc21 [Compound 30a, 7-Fluoro-3-((4-(trifluoromethoxy)benzyl)amino)-4H-benzo[e][1,2,4] thiadiazine 1,1-dioxide]
36 ± 9	O=S1(=O)N=C(NCc2ccccc2)Nc2ccc(Br)cc21 [Compound 21c, 3-(Benzylamino)-7-bromo-4H-benzo[e][1,2,4]thiadiazine 1,1-dioxide]
4 ± 15.5	O=S1(=O)N=C(NCCc2ccccc2)Nc2ccc(F)cc21 [Compound 18a, 7-Fluoro-3-(phenethylamino)-4H-benzo[e][1,2,4]thiadiazine 1,1-dioxide]
35 ± 9.9	O=S1(=O)N=C(NCc2ccc(F)cc2)Nc2ccc(Br)cc21 [Compound 17c, 7-Bromo-3-((4-fluorobenzyl)amino)-4H-benzo[e][1,2,4]thiadiazine 1,1-dioxide]

inhibition at 100 µM [%]	Structure (SMILES)
0	O=S1(=O)NC(=S)Nc2ccc(F)cc21 [Compound 12a, 7-Fluoro-3-thioxo-3,4-dihydro-2H-1,2,4-benzothiadiazine 1,1-dioxide]
1 ± 4.7	O=S1(=O)N=C(NC2CCCC2)Nc2ccc(F)cc21 [Compound 22a, 7-Fluoro-3-(cyclopentylamino)-4H-benzo[e][1,2,4]thiadiazine 1,1-dioxide]
6 ± 1.5	O=C1Nc2ccc(F)cc2S(=O)(=O)N1 [Compound 11a, 7-Fluoro-3-oxo-3,4-dihydro-2H-1,2,4-benzothiadiazine 1,1-dioxide]
0	COc1ccc(CNC2=NS(=O)(=O)c3cc(F)ccc3N2)cc1 [Compound 20a, 7-Fluoro-3-((4-methoxybenzyl)amino)-4H-benzo[e][1,2,4]thiadiazine 1,1-dioxide]
17 ± 3.3	COc1ccc(CCNC2=NS(=O)(=O)c3cc(Br)ccc3N2)cc1 [Compound 34c, 7-Bromo-3-((4-methoxyphenethyl)amino)-4H-benzo[e][1,2,4]thiadiazine 1,1-dioxide]
24 ± 5.2	COc1cccc(CNC2=NS(=O)(=O)c3cc(Br)ccc3N2)c1 [Compound 28c, 7-Bromo-3-((3-methoxybenzyl)amino)-4H-benzo[e][1,2,4]thiadiazine 1,1-dioxide]
6 ± 15.7	O=S1(=O)N=C(NCc2ccc(C(F)(F)F)cc2)Nc2ccc(F)cc21 [Compound 25a, 7-Fluoro-3-((4-(trifluoromethyl)benzyl)amino)-4H-benzo[e][1,2,4]thiadiazine 1,1-dioxide]
4 ± 6.9	CC(C)NC1=NS(=O)(=O)c2cc(F)ccc2N1 [Compound 14a, 7-Fluoro-3-isopropylamino-4H-1,2,4-benzothiadiazine 1,1-dioxide]
24 ± 0.7	CSC1=NS(=O)(=O)c2ccc(Cl)cc2N1 [Compound 13b, 6-Chloro-3-methylsulfanyl-4H-1,2,4-benzothiadiazine 1,1-dioxide]
0	O=C1Nc2ccccc2S(=O)(=O)N1 [Compound 11d, 2H-benzo[e][1,2,4]thiadiazin-3(4H)-one 1,1-dioxide]
0	CC(C)NC1=NS(=O)(=O)c2ccccc2N1C [Compound 43d, 3-(Isopropylamino)-4-methyl-4H-benzo[e][1,2,4]thiadiazine 1,1-dioxide]
29 ± 6.2	Cc1ccc(CNC2=NS(=O)(=O)c3cc(Br)ccc3N2)cc1 [Compound 27c, 7-Bromo-3-((4-methylbenzyl)amino)-4H-benzo[e][1,2,4]thiadiazine 1,1-dioxide]
0	CCNC1=NS(=O)(=O)c2ccc(Cl)cc2N1 [Compound 19b, 6-Chloro-3-(ethylamino)-4H-benzo[e][1,2,4]thiadiazine 1,1-dioxide]
0	CCNC1=NS(=O)(=O)c2ccccc2N1 [Compound 19d, 3-(Ethylamino)-4H-benzo[e][1,2,4]thiadiazine 1,1-dioxide]
0	CC(C)NC1=NS(=O)(=O)c2cc(Br)ccc2N1 [Compound 14c, 7-Bromo-3-isopropylamino-4H-1,2,4-benzothiadiazine 1,1-dioxide]
0	CC(C)NC1=NS(=O)(=O)c2ccccc2N1 [Compound 14d, 3-(Isopropylamino)-4H-benzo[e][1,2,4]thiadiazine 1,1-dioxide]
0	O=S1(=O)N=C(NCCCc2ccccc2)Nc2ccccc21 [Compound 23d, 3-((3-Phenylpropyl)amino)-4H-benzo[e][1,2,4]thiadiazine 1,1-dioxide]
25 ± 7.8	O=S1(=O)N=C(NC2CCCC2)Nc2ccc(Br)cc21 [Compound 22c, 7-Bromo-3-(cyclopentylamino)-4H-benzo[e][1,2,4]thiadiazine 1,1-dioxide]
1 ± 6.2	O=S1(=O)N=C(NCc2ccc(F)cc2)Nc2ccc(F)cc21 [Compound 17a, 7-Fluoro-3-((4-fluorobenzyl)amino)-4H-benzo[e][1,2,4]thiadiazine 1,1-dioxide]
0	COc1ccccc1CNC1=NS(=O)(=O)c2ccc(Cl)cc2N1 [Compound 26b, 6-Chloro-3-((2-methoxybenzyl)amino)-4H-benzo[e][1,2,4]thiadiazine 1,1-dioxide]
2 ± 12.3	C=CCNC1=NS(=O)(=O)c2ccccc2N1 [Compound 32d, 3-(Allylamino)-4H-benzo[e][1,2,4]thiadiazine 1,1-dioxide]
0	C=CCNC1=NS(=O)(=O)c2ccc(Cl)cc2N1 [Compound 32b, 3-(Allylamino)-6-chloro-4H-benzo[e][1,2,4]thiadiazine 1,1-dioxide]
0	O=S1(=O)N=C(NCc2ccccc2)Nc2ccccc21 [Compound 21d, 3-(Benzylamino)-4H-benzo[e][1,2,4]thiadiazine 1,1-dioxide]

From paper PMC8035258 (ChemMedChem, 2021)
